According to US12649746B2, “Ketorolaco derivative, pharmaceutical composition and preparation method therefor and use thereof” (NANJING HERON PHARMACEUTICAL SCIENCE AND TECHNOLOGY CO., …, priority 2020, dated 2026):

Experiments:
[1] = High temperature stability study of compounds (60° C.); type: physicochemical; conditions: in the dark; for Ketorolac (%): related substance
Procedure: Test protocol: the compounds prepared in the present disclosure were placed in a colorless and transparent vial, placed in the dark at a high temperature (60° C.), and were sampled for day 0, day 5 and day 10, respectively, and the purity of the compounds and the change of the related substance (ketorolac) were determined.

[2] = By-product toxicity test (metabolic byproducts in the human body); conditions: for Metabolic by-products in human body: by the metabolic pathways of the compounds in the human body; for Toxicity: toxicity of the metabolic by-products in human body
[3] = Stability study of levorotatory enantiomer of compounds in solvent (MCT); type: physicochemical; conditions: MCT solution; for Isomer (%): dextrorotatory form
Procedure: 2. Test method: the samples were prepared according to Table 2, wherein each sample was dispensed into 10 vials according to the lofting volume, and the samples were lofted according to Table 3.
4. The related substance was determined according to high performance liquid chromatography (General Chapter 0512, China Pharmacopoeia, 2015 Edition).
(1) Chromatographic conditions: the chromatography column was Agilent ZORBAX SB-C8, 4.6 mm×250 mm, 5 μm, and 0.1% phosphoric acid solution-acetonitrile (50:50) was used as a mobile phase; the detection wavelength was […]; the flow rate was 1.0 mL/min; the column temperature was 40° C., and linear gradient elution was performed according to the following table;
(§1) (2) Determination method: an appropriate amount of the product was weighed precisely, a diluent (absolute ethanol) was added and shaken to dissolve, and quantitatively diluted to give a solution containing 0.4 mg per 1 mL, the solution was […] by vortex for 30 s, and filtered with PTFE filter membrane (0.22 μm, JINTENG), and the filtrate was collected as a test sample solution. 10 μL of the solution was weighed precisely and injected into a liquid chromatograph, and a chromatogram was recorded; if an impurity peak existed in the chromatogram of the test sample solution, calculation was performed according to a peak area normalization method to give the target product.
5. Isomer determination was performed according to high performance liquid chromatography (General Chapter 0512, China Pharmacopoeia, 2015 Edition).
(1) Chromatographic conditions: cellulose-tris(3,5-dimethylphenylcarbamate)silica gel was used as filler (Chiralcel OD-H, 250×4.6 mm, 5 μm); n-hexane-isopropanol (90:10) was used as a mobile phase, and isocratic elution was performed for 25 min at a flow rate of 1.0 mL/min; the column temperature was 35° C.; the detection wavelength was 310 nm.
as §1, with “(n-hexane-isopropanol (90:10))” for “(absolute ethanol)”, “about 1.0” for “0.4”, “20” for “10”, “isomer” for “impurity”

Structure (SMILES): CCC(=O)OC(C)OC(=O)C1CCn2c(C(=O)c3ccccc3)ccc21 (stereo not shown) [N4]
- Total main peak purity (%) ([1]; Day 0): 98.91%
- Total main peak purity (%) ([1]; Day 5): 98.38%
- Total main peak purity (%) ([1]; Day 10): 98.04%
- Ketorolac (%) ([1]; Day 0): 0.12%
- Ketorolac (%) ([1]; Day 5): 0.17%
- Ketorolac (%) ([1]; Day 10): 0.14%
- Metabolic by-products in human body [2]: Acetaldehyde and propionic acid
- Toxicity [2]: relatively low

Structure (SMILES): CC(OC(=O)OC1CCCCC1)OC(=O)C1CCn2c(C(=O)c3ccccc3)ccc21 (stereo not shown) [N10]
- Total main peak purity (%) ([1]; Day 0): 96.36%
- Total main peak purity (%) ([1]; Day 5): 94.28%
- Total main peak purity (%) ([1]; Day 10): 94.41%
- Ketorolac (%) ([1]; Day 0): 0.05%
- Ketorolac (%) ([1]; Day 5): 0.23%
- Ketorolac (%) ([1]; Day 10): 0.37%
- Metabolic by-products in human body [2]: Acetaldehyde and cyclohexanol
- Toxicity [2]: relatively low toxicity of byproducts

Structure (SMILES): COC(=O)OC(C)OC(=O)C1CCn2c(C(=O)c3ccccc3)ccc21 (stereo not shown) [N13]
- Metabolic by-products in human body [2]: Acetaldehyde and methanol
- Toxicity [2]: Methanol is more toxic

Structure (SMILES): CCOC(=O)OC(OC(=O)C1CCn2c(C(=O)c3ccccc3)ccc21)C(C)C (stereo not shown) [N18]
- Total main peak purity (%) ([1]; Day 0): 94.25%
- Total main peak purity (%) ([1]; Day 5): 92.10%
- Total main peak purity (%) ([1]; Day 10): 91.78%
- Ketorolac (%) ([1]; Day 0): 0.06%
- Ketorolac (%) ([1]; Day 5): 0.18%
- Ketorolac (%) ([1]; Day 10): 0.26%

Structure (SMILES): CC(C)OC(=O)OC(OC(=O)C1CCn2c(C(=O)c3ccccc3)ccc21)C(C)C (stereo not shown) [N19]
- Total main peak purity (%) ([1]; Day 0): 96.30%
- Total main peak purity (%) ([1]; Day 5): 94.61%
- Total main peak purity (%) ([1]; Day 10): 94.41%
- Ketorolac (%) ([1]; Day 0): 0.07%
- Ketorolac (%) ([1]; Day 5): 0.09%
- Ketorolac (%) ([1]; Day 10): 0.12%

Structure (SMILES): CCC(=O)OC(OC(=O)C1CCn2c(C(=O)c3ccccc3)ccc21)C(C)C (stereo not shown) [N9]
- Total main peak purity (%) ([1]; Day 0): 96.21%
- Total main peak purity (%) ([1]; Day 5): 95.58%
- Total main peak purity (%) ([1]; Day 10): 95.21%
- Ketorolac (%) ([1]; Day 0): 0.29%
- Ketorolac (%) ([1]; Day 5): 0.31%
- Ketorolac (%) ([1]; Day 10): 0.30%

Structure (SMILES): CC(=O)OC(OC(=O)C1CCn2c(C(=O)c3ccccc3)ccc21)C(C)C (stereo not shown) [N5]
- Total main peak purity (%) ([1]; Day 0): 97.46%
- Total main peak purity (%) ([1]; Day 5): 97.62%
- Total main peak purity (%) ([1]; Day 10): 97.37%
- Ketorolac (%) ([1]; Day 0): 0.14%
- Ketorolac (%) ([1]; Day 5): 0.15%
- Ketorolac (%) ([1]; Day 10): 0.17%
- Metabolic by-products in human body [2]: Isobutyraldehyde and acetic acid

Structure (SMILES): CC(OC(=O)C(C)C)OC(=O)C1CCn2c(C(=O)c3ccccc3)ccc21 (stereo not shown) [N6]
- Total main peak purity (%) ([1]; Day 0): 91.56%
- Total main peak purity (%) ([1]; Day 5): 90.94%
- Total main peak purity (%) ([1]; Day 10): 90.22%
- Ketorolac (%) ([1]; Day 0): 0.14%
- Ketorolac (%) ([1]; Day 5): 0.13%
- Ketorolac (%) ([1]; Day 10): 0.17%
- Metabolic by-products in human body [2]: Acetaldehyde and isobutyric acid

Structure (SMILES): CCC(OC(C)=O)OC(=O)C1CCn2c(C(=O)c3ccccc3)ccc21 (stereo not shown) [N3]
- Total main peak purity (%) ([1]; Day 0): 92.45%
- Total main peak purity (%) ([1]; Day 5): 90.83%
- Total main peak purity (%) ([1]; Day 10): 90.36%
- Ketorolac (%) ([1]; Day 0): 0.11%
- Ketorolac (%) ([1]; Day 5): 0.15%
- Ketorolac (%) ([1]; Day 10): 0.17%
- Metabolic by-products in human body [2]: Propionaldehyde and acetic acid
- Toxicity [2]: relatively low

Structure (SMILES): CCOC(=O)OC(C)OC(=O)[C@H]1CCn2c(C(=O)c3ccccc3)ccc21 (stereo partly drawn) [N12(S)]
- Ketorolac (%) ([3]; 5° C., Day 5): 0.02%
- Purity (%) ([3]; 5° C., Day 5): 99.62%
- Ketorolac (%) ([3]; 5° C., Day 15): 0.02%
- Purity (%) ([3]; 5° C., Day 15): 99.64%
- Ketorolac (%) ([3]; 5° C., Day 30): 0.03%
- Purity (%) ([3]; 5° C., Day 30): 99.55%
- Ketorolac (%) ([3]; 5° C., day 0): 0.02%
- Purity (%) ([3]; 5° C., day 0): 99.65%
- Ketorolac (%) ([3]; 25° C., Day 5): 0.03%
- Purity (%) ([3]; 25° C., Day 5): 99.59%
- Ketorolac (%) ([3]; 25° C., Day 15): 0.04%
- Purity (%) ([3]; 25° C., Day 15): 99.61%
- Ketorolac (%) ([3]; 25° C., Day 30): 0.07%
- Purity (%) ([3]; 25° C., Day 30): 99.49%
- Ketorolac (%) ([3]; 25° C., day 0): 0.02%
- Purity (%) ([3]; 25° C., day 0): 99.65%
- Ketorolac (%) ([3]; 60° C., Day 5): 0.09%
- Purity (%) ([3]; 60° C., Day 5): 99.53%
- Ketorolac (%) ([3]; 60° C., Day 15): 0.23%
- Purity (%) ([3]; 60° C., Day 15): 99.35%
- Ketorolac (%) ([3]; 60° C., Day 30): 0.41%
- Purity (%) ([3]; 60° C., Day 30): 99.05%
- Ketorolac (%) ([3]; 60° C., day 0): 0.02%
- Purity (%) ([3]; 60° C., day 0): 99.65%
- Isomer (%) ([3]; 5° C., Day 5): 3.05%
- Isomer (%) ([3]; 5° C., Day 15): 3.07%
- Isomer (%) ([3]; 5° C., Day 30): 3.06%
- Isomer (%) ([3]; 5° C., day 0): 3.01%
- Isomer (%) ([3]; 25° C., Day 5): 3.04%
- Isomer (%) ([3]; 25° C., Day 15): 3.09%
- Isomer (%) ([3]; 25° C., Day 30): 3.11%
- Isomer (%) ([3]; 25° C., day 0): 3.01%
- Isomer (%) ([3]; 60° C., Day 5): 3.12%
- Isomer (%) ([3]; 60° C., Day 15): 3.1%
- Isomer (%) ([3]; 60° C., Day 30): 3.48%
- Isomer (%) ([3]; 60° C., day 0): 3.01%

Structure (SMILES): CC(C)OC(=O)OC(C)OC(=O)[C@H]1CCn2c(C(=O)c3ccccc3)ccc21 (stereo partly drawn) [N2(S)]
- Ketorolac (%) ([3]; 5° C., Day 5): 0.2%
- Purity (%) ([3]; 5° C., Day 5): 99.08%
- Ketorolac (%) ([3]; 5° C., Day 15): 0.14%
- Purity (%) ([3]; 5° C., Day 15): 99.18%
- Ketorolac (%) ([3]; 5° C., Day 30): 0.25%
- Purity (%) ([3]; 5° C., Day 30): 99.01%
- Ketorolac (%) ([3]; 5° C., day 0): 0.16%
- Purity (%) ([3]; 5° C., day 0): 99.14%
- Ketorolac (%) ([3]; 25° C., Day 5): 0.21%
- Purity (%) ([3]; 25° C., Day 5): 99.08%
- Ketorolac (%) ([3]; 25° C., Day 15): 0.17%
- Purity (%) ([3]; 25° C., Day 15): 99.13%
- Ketorolac (%) ([3]; 25° C., Day 30): 0.28%
- Purity (%) ([3]; 25° C., Day 30): 98.95%
- Ketorolac (%) ([3]; 25° C., day 0): 0.16%
- Purity (%) ([3]; 25° C., day 0): 99.14%
- Ketorolac (%) ([3]; 60° C., Day 5): 0.3%
- Purity (%) ([3]; 60° C., Day 5): 98.92%
- Ketorolac (%) ([3]; 60° C., Day 15): 0.49%
- Purity (%) ([3]; 60° C., Day 15): 98.67%
- Ketorolac (%) ([3]; 60° C., Day 30): 0.65%
- Purity (%) ([3]; 60° C., Day 30): 98.38%
- Ketorolac (%) ([3]; 60° C., day 0): 0.16%
- Purity (%) ([3]; 60° C., day 0): 99.14%
- Isomer (%) ([3]; 5° C., Day 5): 5.63%
- Isomer (%) ([3]; 5° C., Day 15): 5.87%
- Isomer (%) ([3]; 5° C., Day 30): 5.99%
- Isomer (%) ([3]; 5° C., day 0): 5.65%
- Isomer (%) ([3]; 25° C., Day 5): 5.66%
- Isomer (%) ([3]; 25° C., Day 15): 5.86%
- Isomer (%) ([3]; 25° C., Day 30): 6.01%
- Isomer (%) ([3]; 25° C., day 0): 5.65%
- Isomer (%) ([3]; 60° C., Day 5): 5.7%
- Isomer (%) ([3]; 60° C., Day 15): 5.89%
- Isomer (%) ([3]; 60° C., Day 30): 6.13%
- Isomer (%) ([3]; 60° C., day 0): 5.65%
